Measurements: PMC11189555, “Aryl amino acetamides prevent Plasmodium falciparum ring development via targeting the lipid-transfer protein PfSTART1” (Nature Communications, 2024)
Several values for one entry are separate records, joined by “and”; a condition that tells them apart may be missing. Equal values may be shown once.

Tested on: 3D7 P. falciparum parasites
Test: Growth inhibition assay (72 h, LDH activity)
Type: cell-based, Plasmodium falciparum
Conditions: for NORMALISED (growth inhibition, LDH absorbance vs DMSO and uRBC) / sample/DMSO (growth inhibition vs DMSO, LDH): 3D7, 2.5 mM GlcN; for (av-uRBC) / (DMSO-uRBC) x100: 3D7; for Normalised to DMSO: 3D7 replicate 1
Experimental: Parasite growth assays with inhibitory compounds were performed as per[11] and are fully described in the Supplementary Information. […]
Growth inhibition assays. Synchronised ring-stage parasites (0.3-0.6% parasitemia, 2% haematocrit) were grown for 72 h in a serial-dilution of the compound under […]
and compound 4. Note that M-833 was first purchased from MolPort (MolPort -002-267-916) then made in-house at WEHI: the differences observed in EC50s across experiments are attributed to the different batches of M -833. For some experiments, 0, 0.25 or 2.5 mM of glucosamine (GlcN) was also added. Experiments were set up in technical duplicates or triplicates. Following a freeze -thaw cycle, lactate dehydrogenase (LDH) activity was assessed as an indicator of parasite growt h 5. 30 μL of parasite culture was incubated for 30 min in the dark with 75 μL Malstat mixture (0.1 M Tris pH 9.0, 20 g/L lactic acid, pH 7.5, 0.2% Triton-X100, 0.5 g/L acetylpyridine adenine dinucleotide (APAD, Sigma), 200 μg/mL nitroblue tetrazolium (NBT; Sigma), 1 μg/mL phenozine ethosulfate (PES; Sigma)). Absorbance was then measured at 650 nm, transformed using the formula below, plotted against the logarithm of the concentrations, and a non-linear regression (log(inhibitor) vs. response, variable slope) was calculated using GraphPad Prism to assess the half-inhibitory […]
Growth inhibition % = (1 − average(sample)− average(uRBC)) ∗ 100 […]
The DMSO samples were also used to assess growth of parasite in the presence of 0.25 and 2.5 mM GlcN (normalised by DMSO in 0 mM GlcN). […]

Cc1cc(Cl)c(S(=O)(=O)N2CCCC2)cc1OCC(=O)NC1CCCCC1 [M-833]
NORMALISED (growth inhibition, LDH absorbance vs DMSO and uRBC) (M833 dilution point 4 of 10 from 10 uM start): 93.881 and 84.8839 and 92.4066 | NORMALISED (growth inhibition, LDH absorbance vs DMSO and uRBC) (M833 dilution point 5 of 10 from 10 uM start): 83.487 and 63.7656 and 70.6904 | sample/DMSO (growth inhibition vs DMSO, LDH) (M-833 0.000508053 uM, biological replicates 1-3): -0.6607 | sample/DMSO (growth inhibition vs DMSO, LDH) (M-833 0.00152416 uM, biological replicates 1-4): -1.11 and -0.7648 and -1.644 and -5.451 | sample/DMSO (growth inhibition vs DMSO, LDH) (M-833 0.00457247 uM, biological replicates 1-4): 2.378 and 5.032 and -5.671 and -4.085 | sample/DMSO (growth inhibition vs DMSO, LDH) (M-833 0.0137174 uM, biological replicates 1-4): 17.2304 and 4.206 and -1.672 and 24.2341 | sample/DMSO (growth inhibition vs DMSO, LDH) (M-833 0.0411523 uM, biological replicates 1-4): 38.9006 and 17.4059 and 1.86 and 27.5421 | sample/DMSO (growth inhibition vs DMSO, LDH) (M-833 0.123457 uM, biological replicates 1-4): 56.4218 and 44.1266 and 25.1289 and 54.0055 | sample/DMSO (growth inhibition vs DMSO, LDH) (M-833 0.37037 uM, biological replicates 1-4): 86.8658 and 83.833 and 67.9393 and 76.787 | sample/DMSO (growth inhibition vs DMSO, LDH) (M-833 1.11111 uM, biological replicates 1-4): 92.389 and 94.7232 and 88.5258 and 88.1778 | sample/DMSO (growth inhibition vs DMSO, LDH) (M-833 3.33333 uM, biological replicates 1-4): 94.0803 and 95.4726 and 90.5741 and 88.9113 | Growth (Abs) Normalised to DMSO (3D7, M-833 0.0390625 uM): 98.5985 | Growth (Abs) Normalised to DMSO (3D7, M-833 0.078125 uM): 87.6094 | Growth (Abs) Normalised to DMSO (3D7, M-833 0.15625 uM): 73.0137 | Growth (Abs) Normalised to DMSO (3D7, M-833 0.3125 uM): 46.3221 | Growth (Abs) Normalised to DMSO (3D7, M-833 0.625 uM): 13.1941 | Growth (Abs) Normalised to DMSO (3D7, M-833 1.25 uM): 5.1955 | Growth (Abs) Normalised to DMSO (3D7, M-833 2.5 uM): 3.473 | Growth (Abs) Normalised to DMSO (3D7, M-833 5 uM): 2.75 | Growth (Abs) Normalised to DMSO (3D7, M-833 10 uM): 1.893 | (av-uRBC) / (DMSO-uRBC) x100 (conc. 3.04832 nM, Biological replicate 1 (2021-10-25)): 99.6118 | (av-uRBC) / (DMSO-uRBC) x100 (conc. 3.04832 nM, Biological replicate 2 (2021-11-03)): 102.365 | (av-uRBC) / (DMSO-uRBC) x100 (conc. 9.14495 nM, Biological replicate 1 (2021-10-25)): 98.5673 | (av-uRBC) / (DMSO-uRBC) x100 (conc. 9.14495 nM, Biological replicate 2 (2021-11-03)): 104.012 | (av-uRBC) / (DMSO-uRBC) x100 (conc. 27.4348 nM, Biological replicate 1 (2021-10-25)): 97.1981 | (av-uRBC) / (DMSO-uRBC) x100 (conc. 27.4348 nM, Biological replicate 2 (2021-11-03)): 104.176 | (av-uRBC) / (DMSO-uRBC) x100 (conc. 82.3045 nM, Biological replicate 1 (2021-10-25)): 86.0541 | (av-uRBC) / (DMSO-uRBC) x100 (conc. 82.3045 nM, Biological replicate 2 (2021-11-03)): 97.3382 | (av-uRBC) / (DMSO-uRBC) x100 (conc. 246.914 nM, Biological replicate 1 (2021-10-25)): 38.189 | (av-uRBC) / (DMSO-uRBC) x100 (conc. 246.914 nM, Biological replicate 2 (2021-11-03)): 46.3664 | (av-uRBC) / (DMSO-uRBC) x100 (conc. 740.741 nM, Biological replicate 1 (2021-10-25)): 13.3602 | (av-uRBC) / (DMSO-uRBC) x100 (conc. 740.741 nM, Biological replicate 2 (2021-11-03)): 12.5985 | (av-uRBC) / (DMSO-uRBC) x100 (conc. 2222.22 nM, Biological replicate 1 (2021-10-25)): 9.5843 | (av-uRBC) / (DMSO-uRBC) x100 (conc. 2222.22 nM, Biological replicate 2 (2021-11-03)): 9.9758 | (av-uRBC) / (DMSO-uRBC) x100 (conc. 6666.67 nM, Biological replicate 1 (2021-10-25)): 8.737 | (av-uRBC) / (DMSO-uRBC) x100 (conc. 6666.67 nM, Biological replicate 2 (2021-11-03)): 9.539 | (av-uRBC) / (DMSO-uRBC) x100 (conc. 20000 nM, Biological replicate 1 (2021-10-25)): 8.871 | (av-uRBC) / (DMSO-uRBC) x100 (conc. 20000 nM, Biological replicate 2 (2021-11-03)): 7.978 | Normalised to DMSO (M-833 0.0390625 uM): 93.8526 | Normalised to DMSO (M-833 0.078125 uM): 78.1653 | Normalised to DMSO (M-833 0.15625 uM): 53.0058
